Target: T1, All2699g1g2 (g1g2) (Nostoc sp. PCC 7120 = FACHB-418, UniProt A0ACD6B963)
T1 construct: gene all2699; GAF1-GAF2 (GAF-PHY) photosensory module of All2699; borders, tags and host not in main text
Test: steady-state absorption, CD and femtosecond transient absorption of the chromophore-bound protein
Assay type: binding
Conditions: covalent (known biology, not given); chromophore embedded in GAF1 domain; Pr and Pfr states

T1 sequence (A0ACD6B963 1-656 limits assumed): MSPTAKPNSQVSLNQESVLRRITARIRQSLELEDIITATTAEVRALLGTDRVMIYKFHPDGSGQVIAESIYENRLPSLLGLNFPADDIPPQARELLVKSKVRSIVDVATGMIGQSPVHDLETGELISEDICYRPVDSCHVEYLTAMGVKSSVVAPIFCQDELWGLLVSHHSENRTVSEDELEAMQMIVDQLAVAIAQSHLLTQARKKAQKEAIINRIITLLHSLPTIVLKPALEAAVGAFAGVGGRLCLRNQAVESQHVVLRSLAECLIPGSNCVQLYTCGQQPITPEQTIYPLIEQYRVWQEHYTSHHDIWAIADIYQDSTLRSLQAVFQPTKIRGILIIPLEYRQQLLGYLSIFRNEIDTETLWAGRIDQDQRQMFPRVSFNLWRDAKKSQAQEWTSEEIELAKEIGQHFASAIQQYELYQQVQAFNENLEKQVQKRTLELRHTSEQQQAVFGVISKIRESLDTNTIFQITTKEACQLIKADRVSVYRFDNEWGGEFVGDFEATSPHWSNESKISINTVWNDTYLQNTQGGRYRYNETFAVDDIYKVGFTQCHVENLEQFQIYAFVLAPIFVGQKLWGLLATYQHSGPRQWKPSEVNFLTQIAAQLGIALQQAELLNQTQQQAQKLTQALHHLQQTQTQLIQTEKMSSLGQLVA

## C/C=C1/C(=C/C2=NC(=C\c3[nH]c(/C=C4\NC(=O)C(CC)=C4C)c(C)c3CCC(=O)O)/C(CCC(=O)O)=C2C)NC(=O)[C@@H]1C [PCB, phycocyanobilin]
  steady-state absorption, CD and femtosecond transient absorption of the chromoph: interactions of the PCB chromophore with the “tongue” region of the g2 domain in g1g2

Source: PMC7839672, “Effect of the PHY Domain on the Photoisomerization Step of the Forward Pr→Pfr Conversion of a Knotless Phytochrome” (Chemistry (Weinheim an Der Bergstrasse, Germany), 2020)
